Measured values taken from ChEMBL document CHEMBL4257449, “New N-(2-phenyl-4-oxo-1,3-thiazolidin-3-yl)-1,2-benzothiazole-3-carboxamides and acetamides as antimicrobial agents” (2017).
Converted amounts (≈) assume the structure as drawn.

What was measured:
Penicillium ochrochloron [1] = test: Fungicidal activity against Penicillium ochrochloron ATCC 9112 incubated for 72 hrs followed by serial sub-cultivation for 72 hrs and measured after 72 hrs by serial dilution method; format: functional
Enterobacter cloacae [2] = test: Bactericidal activity against Enterobacter cloacae incubated for 24 hrs followed by serial sub-cultivation and measured after 24 hrs by microdilution method; format: functional
Candida albicans [3] = test: Antifungal activity against Candida albicans after 72 hrs by serial dilution method; format: functional
Bacillus cereus [4] = test: Antibacterial activity against Bacillus cereus after 24 hrs by microdilution method; format: functional
Salmonella typhimurium [5] = test: Bactericidal activity against Salmonella typhimurium ATCC 13311 incubated for 24 hrs followed by serial sub-cultivation and measured after 24 hrs by microdilution method; format: functional, Salmonella enterica subsp. enterica serovar Typhimurium
Talaromyces funiculosus [6] = test: Fungicidal activity against Penicillium funiculosum ATCC 36839 incubated for 72 hrs followed by serial sub-cultivation for 72 hrs and measured after 72 hrs by serial dilution method; format: functional
Enterobacter cloacae [7] = test: Antibacterial activity against Enterobacter cloacae after 24 hrs by microdilution method; format: functional
Aspergillus fumigatus [8] = test: Antifungal activity against Aspergillus fumigatus after 72 hrs by serial dilution method; format: functional
Trichoderma viride [9] = test: Fungicidal activity against Trichoderma viride IAM 5061 incubated for 72 hrs followed by serial sub-cultivation for 72 hrs and measured after 72 hrs by serial dilution method; format: functional
Talaromyces funiculosus [10] = test: Antifungal activity against Penicillium funiculosum ATCC 36839 after 72 hrs by serial dilution method; format: functional; details: ATCC 36839, 72 h
Aspergillus versicolor [11] = test: Fungicidal activity against Aspergillus versicolor ATCC 11730 incubated for 72 hrs followed by serial sub-cultivation for 72 hrs and measured after 72 hrs by serial dilution method; format: functional
Pseudomonas aeruginosa [12] = test: Bactericidal activity against Pseudomonas aeruginosa ATCC 27853 incubated for 24 hrs followed by serial sub-cultivation and measured after 24 hrs by microdilution method; format: functional
Aspergillus fumigatus [13] = test: Fungicidal activity against Aspergillus fumigatus incubated for 72 hrs followed by serial sub-cultivation for 72 hrs and measured after 72 hrs by serial dilution method; format: functional
Aspergillus niger [14] = test: Antifungal activity against Aspergillus niger ATCC 6275 after 72 hrs by serial dilution method; format: functional; details: ATCC 6275, 72 h
Penicillium ochrochloron [15] = test: Antifungal activity against Penicillium ochrochloron ATCC 9112 after 72 hrs by serial dilution method; format: functional; details: ATCC 9112, 72 h
Aspergillus ochraceus [16] = test: Antifungal activity against Aspergillus ochraceus ATCC 12066 after 72 hrs by serial dilution method; format: functional; details: ATCC 12066, 72 h
Aspergillus versicolor [17] = test: Antifungal activity against Aspergillus versicolor ATCC 11730 after 72 hrs by serial dilution method; format: functional; details: ATCC 11730, 72 h
Escherichia coli [18] = test: Antibacterial activity against Escherichia coli ATCC 35210 after 24 hrs by microdilution method; format: functional; details: ATCC 35210, 24 h
Listeria monocytogenes [19] = test: Antibacterial activity against Listeria monocytogenes NCTC 7973 after 24 hrs by microdilution method; format: functional; details: NCTC 7973, 24 h
Trichoderma viride [20] = test: Antifungal activity against Trichoderma viride IAM 5061 after 72 hrs by serial dilution method; format: functional; details: IAM 5061, 72 h
Candida albicans [21] = test: Fungicidal activity against Candida albicans incubated for 72 hrs followed by serial sub-cultivation for 72 hrs and measured after 72 hrs by serial dilution method; format: functional
Micrococcus flavus [22] = test: Bactericidal activity against Micrococcus flavus ATCC 10240 incubated for 24 hrs followed by serial sub-cultivation and measured after 24 hrs by microdilution method; format: functional
Staphylococcus aureus [23] = test: Antibacterial activity against Staphylococcus aureus ATCC 6538 after 24 hrs by microdilution method; format: functional; details: ATCC 6538, 24 h
Listeria monocytogenes [24] = test: Bactericidal activity against Listeria monocytogenes NCTC 7973 incubated for 24 hrs followed by serial sub-cultivation and measured after 24 hrs by microdilution method; format: functional
Aspergillus ochraceus [25] = test: Fungicidal activity against Aspergillus ochraceus ATCC 12066 incubated for 72 hrs followed by serial sub-cultivation for 72 hrs and measured after 72 hrs by serial dilution method; format: functional
Micrococcus flavus [26] = test: Antibacterial activity against Micrococcus flavus ATCC 10240 after 24 hrs by microdilution method; format: functional; details: ATCC 10240, 24 h
Pseudomonas aeruginosa [27] = test: Antibacterial activity against Pseudomonas aeruginosa ATCC 27853 after 24 hrs by microdilution method; format: functional; details: ATCC 27853, 24 h
Staphylococcus aureus [28] = test: Bactericidal activity against Staphylococcus aureus ATCC 6538 incubated for 24 hrs followed by serial sub-cultivation and measured after 24 hrs by microdilution method; format: functional
Bacillus cereus [29] = test: Bactericidal activity against Bacillus cereus incubated for 24 hrs followed by serial sub-cultivation and measured after 24 hrs by microdilution method; format: functional
Escherichia coli [30] = test: Bactericidal activity against Escherichia coli ATCC 35210 incubated for 24 hrs followed by serial sub-cultivation and measured after 24 hrs by microdilution method; format: functional
Salmonella typhimurium [31] = test: Antibacterial activity against Salmonella typhimurium ATCC 13311 after 24 hrs by microdilution method; format: functional, Salmonella enterica subsp. enterica serovar Typhimurium; details: Salmonella enterica, ATCC 13311, 24 h
Aspergillus niger [32] = test: Fungicidal activity against Aspergillus niger ATCC 6275 incubated for 72 hrs followed by serial sub-cultivation for 72 hrs and measured after 72 hrs by serial dilution method; format: functional

Question: What does the source list for `O=C(Cc1nsc2ccccc12)NN1C(=O)CSC1c1c(F)cccc1Cl` (centres undefined)?
Answer: MFC99.5 (Penicillium ochrochloron [1]): 9.8 ×10⁻² umol/ml; MBC99.5 (Enterobacter cloacae [2]): 19.6 ×10⁻² umol/ml; MIC (Candida albicans [3]): 49 µM (≈ 20.7 µg/mL); MIC (Bacillus cereus [4]): 147 µM (≈ 62 µg/mL); MBC99.5 (Salmonella typhimurium [5]): 36.7 ×10⁻² umol/ml; MFC99.5 (Talaromyces funiculosus [6]): 9.8 ×10⁻² umol/ml; MIC (Enterobacter cloacae [7]): 147 µM (≈ 62 µg/mL); MIC (Aspergillus fumigatus [8]): 98 µM (≈ 41.3 µg/mL); MFC99.5 (Trichoderma viride [9]): 4.9 ×10⁻² umol/ml; MIC (Talaromyces funiculosus [10]): 49 µM (≈ 20.7 µg/mL); MFC99.5 (Aspergillus versicolor [11]): 9.8 ×10⁻² umol/ml; MBC99.5 (Pseudomonas aeruginosa [12]): 36.7 ×10⁻² umol/ml; MFC99.5 (Aspergillus fumigatus [13]): 19.6 ×10⁻² umol/ml; MIC (Aspergillus niger [14]): 196 µM (≈ 82.7 µg/mL); MIC (Penicillium ochrochloron [15]): 49 µM (≈ 20.7 µg/mL); MIC (Aspergillus ochraceus [16]): 98 µM (≈ 41.3 µg/mL); MIC (Aspergillus versicolor [17]): 49 µM (≈ 20.7 µg/mL); MIC (Escherichia coli [18]): 270 µM (≈ 114 µg/mL); MIC (Listeria monocytogenes [19]): 367 µM (≈ 155 µg/mL); MIC (Trichoderma viride [20]): 38 µM (≈ 16 µg/mL); MFC99.5 (Candida albicans [21]): 9.8 ×10⁻² umol/ml; MBC99.5 (Micrococcus flavus [22]): 36.7 ×10⁻² umol/ml; MIC (Staphylococcus aureus [23]): 147 µM (≈ 62 µg/mL); MBC99.5 (Listeria monocytogenes [24]): 73.4 ×10⁻² umol/ml; MFC99.5 (Aspergillus ochraceus [25]): 19.6 ×10⁻² umol/ml; MIC (Micrococcus flavus [26]): 270 µM (≈ 114 µg/mL); MIC (Pseudomonas aeruginosa [27]): 270 µM (≈ 114 µg/mL); MBC99.5 (Staphylococcus aureus [28]): 19.6 ×10⁻² umol/ml; MBC99.5 (Bacillus cereus [29]): 36.7 ×10⁻² umol/ml; MBC99.5 (Escherichia coli [30]): 36.7 ×10⁻² umol/ml; MIC (Salmonella typhimurium [31]): 196 µM (≈ 82.7 µg/mL); MFC99.5 (Aspergillus niger [32]): 36.7 ×10⁻² umol/ml

Question: For `O=C(Cc1nsc2ccccc12)NN1C(=O)CSC1c1c(F)cccc1F` (centres undefined), which MFC99.5 (Penicillium ochrochloron [1]) is on record?
Answer: 19.8 ×10⁻² umol/ml

Question: And the MBC99.5 (Enterobacter cloacae [2])?
Answer: 37 ×10⁻² umol/ml

Question: And the MIC (Candida albicans [3])?
Answer: 99 µM (≈ 40.1 µg/mL)

Question: And the MIC (Bacillus cereus [4])?
Answer: 198 µM (≈ 80.3 µg/mL)

Question: And the MBC99.5 (Salmonella typhimurium [5])?
Answer: 37 ×10⁻² umol/ml

Question: And the MFC99.5 (Talaromyces funiculosus [6])?
Answer: 9.9 ×10⁻² umol/ml

Question: What about the MIC (Enterobacter cloacae [7]) of the same compound?
Answer: 198 µM (≈ 80.3 µg/mL)

Question: What about the MIC (Aspergillus fumigatus [8]) of the same compound?
Answer: 296 µM (≈ 120 µg/mL)

Question: What about the MFC99.5 (Trichoderma viride [9]) of the same compound?
Answer: 9.9 ×10⁻² umol/ml

Question: What about the MIC (Talaromyces funiculosus [10]) of the same compound?
Answer: 74 µM (≈ 30 µg/mL)

Question: And the MFC99.5 (Aspergillus versicolor [11])?
Answer: 9.9 ×10⁻² umol/ml

Question: And the MBC99.5 (Pseudomonas aeruginosa [12])?
Answer: 37 ×10⁻² umol/ml

Question: And the MFC99.5 (Aspergillus fumigatus [13])?
Answer: 37 ×10⁻² umol/ml

Question: And the MIC (Aspergillus niger [14])?
Answer: 148 µM (≈ 60 µg/mL)

Question: What about the MIC (Penicillium ochrochloron [15]) of the same compound?
Answer: 148 µM (≈ 60 µg/mL)

Question: And the MIC (Aspergillus ochraceus [16])?
Answer: 74 µM (≈ 30 µg/mL)

Question: And the MIC (Aspergillus versicolor [17])?
Answer: 74 µM (≈ 30 µg/mL)

Question: What about the MIC (Escherichia coli [18]) of the same compound?
Answer: 272 µM (≈ 110 µg/mL)

Question: And the MIC (Listeria monocytogenes [19])?
Answer: 543 µM (≈ 220 µg/mL)

Question: What about the MIC (Trichoderma viride [20]) of the same compound?
Answer: 74 µM (≈ 30 µg/mL)

Question: What about the MFC99.5 (Candida albicans [21]) of the same compound?
Answer: 19.8 ×10⁻² umol/ml

Question: And the MBC99.5 (Micrococcus flavus [22])?
Answer: 37 ×10⁻² umol/ml

Question: And the MIC (Staphylococcus aureus [23])?
Answer: 198 µM (≈ 80.3 µg/mL)

Question: What about the MBC99.5 (Listeria monocytogenes [24]) of the same compound?
Answer: 74 ×10⁻² umol/ml

Question: And the MFC99.5 (Aspergillus ochraceus [25])?
Answer: 9.9 ×10⁻² umol/ml

Question: What about the MIC (Micrococcus flavus [26]) of the same compound?
Answer: 272 µM (≈ 110 µg/mL)

Question: And the MIC (Pseudomonas aeruginosa [27])?
Answer: 272 µM (≈ 110 µg/mL)

Question: And the MBC99.5 (Staphylococcus aureus [28])?
Answer: 37 ×10⁻² umol/ml

Question: And the MBC99.5 (Bacillus cereus [29])?
Answer: 37 ×10⁻² umol/ml

Question: What about the MBC99.5 (Escherichia coli [30]) of the same compound?
Answer: 37 ×10⁻² umol/ml

Question: What about the MIC (Salmonella typhimurium [31]) of the same compound?
Answer: 198 µM (≈ 80.3 µg/mL)

Question: And the MFC99.5 (Aspergillus niger [32])?
Answer: 19.8 ×10⁻² umol/ml
